From patent US9045482B2, “Pyrido[4,3-B]indoles and methods of use” (Medivation Technologies, Inc., priority 2009, dated 2015) come the findings set out here.

SMILES strings stand for the structures.

In assay [1] the target is T1, human recombinant adrenergic α2B receptor (Homo sapiens, UniProt P18089).
T1 construct: expressed in transfected cells; host or cells: Chinese hamster ovary (CHO-K1) cells
T1 sequence (P18089 1-450): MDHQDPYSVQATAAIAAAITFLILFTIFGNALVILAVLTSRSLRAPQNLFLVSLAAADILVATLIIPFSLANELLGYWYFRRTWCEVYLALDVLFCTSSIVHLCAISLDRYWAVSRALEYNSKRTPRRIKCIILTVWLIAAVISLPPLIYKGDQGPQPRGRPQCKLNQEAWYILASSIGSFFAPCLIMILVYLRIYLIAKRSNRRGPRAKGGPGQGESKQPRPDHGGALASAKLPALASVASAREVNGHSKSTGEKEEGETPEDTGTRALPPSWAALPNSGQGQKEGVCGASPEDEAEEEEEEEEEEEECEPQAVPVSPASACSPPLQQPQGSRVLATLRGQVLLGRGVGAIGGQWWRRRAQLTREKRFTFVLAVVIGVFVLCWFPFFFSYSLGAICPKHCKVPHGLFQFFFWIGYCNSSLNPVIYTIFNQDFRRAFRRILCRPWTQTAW
Kind of assay: Adrenergic α2B radioligand binding ([3H]Rauwolscine). How it is done:
To evaluate in radioligand binding assays the activity of compounds of the invention, human recombinant adrenergic α2B receptor expressed in Chinese hamster ovary (CHO-K1) cells [Uhlen, S. et al., Eur. J. Pharmacol. (1998), 343(1):93] in a modified Tris-HCl buffer (50 mM Tris-HCl, pH 7.4, 12.5 mM MgCl2, 1 mM EDTA, 0.2% BSA) was used. Compounds of the invention were incubated with 2.5 nM [^3H]Rauwolscine for 60 min at 25° C. Non-specific binding was estimated in the presence of 10 μM Prozosin. Receptor proteins were filtered and washed, the filters were then counted to determine [^3H]Rauwolscine specifically bound. Compounds were screened at 1 μM or lower, using 1% DMSO as vehicle. Compounds of the invention were tested in this biochemical assay. Biochemical assay results for representative compounds were presented as the percent inhibition of specific binding in Table 3.

Assay [2] has as its target T2, human recombinant adrenergic α2A receptor (Homo sapiens, UniProt P08913).
T2 construct: expressed in transfected cells; host or cells: insect Sf9 cells
T2 sequence (P08913 1-465): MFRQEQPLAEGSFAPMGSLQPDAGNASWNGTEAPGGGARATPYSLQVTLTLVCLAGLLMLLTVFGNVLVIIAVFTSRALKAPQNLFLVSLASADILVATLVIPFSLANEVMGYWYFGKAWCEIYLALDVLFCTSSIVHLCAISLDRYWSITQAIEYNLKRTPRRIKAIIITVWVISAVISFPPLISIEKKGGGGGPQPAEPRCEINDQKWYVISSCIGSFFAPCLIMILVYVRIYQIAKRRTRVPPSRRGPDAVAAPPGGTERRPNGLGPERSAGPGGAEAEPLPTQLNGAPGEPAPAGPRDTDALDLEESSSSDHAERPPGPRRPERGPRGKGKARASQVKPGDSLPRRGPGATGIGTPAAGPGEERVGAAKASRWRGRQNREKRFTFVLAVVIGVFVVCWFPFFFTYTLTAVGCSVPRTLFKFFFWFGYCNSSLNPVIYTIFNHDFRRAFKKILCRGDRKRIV
Put plainly: Adrenergic α2A radioligand binding ([3H]MK-912). How it is done: To evaluate in radioligand binding assays the activity of compounds of the invention, human recombinant adrenergic α2A receptor expressed in insect Sf9 cells [Uhlen, S. et al., J. Pharmacol. Exp. Ther. (1994), 271:1558] in a modified Tris-HCl buffer (50 mM Tris-HCl, pH 7.4, 12.5 mM MgCl2, 2 mM EDTA) was used. Compounds of invention were incubated with 1 nM [^3H]MK-912 for 60 min at 25° C. MK912 was (2S-trans)-1,3,4,5′,6,6′,7,12b-octahydro-1′,3′-dimethyl-spiro[2H-benzofuro[2,3-a]quinolizine-2,4′(1′H)-pyrimidin]-2′(3′H)-one hydrochloride Non-specific binding was estimated in the presence of 10 μM WB-4101 (2-(2,6-dimethoxyphenoxyethyl)aminomethyl-1,4-benzodioxane hydrochloride). Receptor proteins were filtered and washed, the filters were then counted to determine [^3H]MK-912 specifically bound. Compounds were screened at 1 μM or lower, using 1% DMSO as vehicle. Compounds of the invention were tested in this biochemical assay. Biochemical assay results for representative compounds were presented as the percent inhibition of specific binding in Table 3.

Assay [3] deals with T3, human recombinant histamine H2 receptor (Homo sapiens, UniProt P25021).
T3 construct: expressed in transfected cells; host or cells: Chinese hamster ovary (CHO) K1 cells
T3 sequence (P25021 whole entry): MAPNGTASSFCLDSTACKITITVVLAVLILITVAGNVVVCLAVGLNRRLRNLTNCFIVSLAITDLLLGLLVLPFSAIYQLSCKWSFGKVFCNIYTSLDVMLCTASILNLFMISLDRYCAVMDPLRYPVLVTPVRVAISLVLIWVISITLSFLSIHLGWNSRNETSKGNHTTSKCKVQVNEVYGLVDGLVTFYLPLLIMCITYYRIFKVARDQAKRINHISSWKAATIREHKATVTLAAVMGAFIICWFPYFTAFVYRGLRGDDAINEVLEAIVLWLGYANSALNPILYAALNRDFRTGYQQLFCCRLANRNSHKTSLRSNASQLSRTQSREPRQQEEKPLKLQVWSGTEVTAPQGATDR
Put plainly: Histamine H2 radioligand binding (Aminopotentidine). Conditions: read-out: Binding data (Percentage Inhibition) Histamine Binding H2. Here is the method: To evaluate in radioligand binding assays the activity of compounds of the invention, human recombinant histamine H2 receptor expressed in Chinese hamster ovary (CHO) K1 cells [Ruat, M., Proc. Natl. Acad. Sci. USA. (1990), 87(5):1658] in a 50 mM Phosphate buffer, pH 7.4 was used. Compounds of the invention were incubated with 0.1 nM […] for 120 min at 25° C. Non-specific binding was estimated in the presence of 3 μM Tiotidine. Receptor proteins were filtered and washed, the filters were then counted to determine […] specifically bound. Compounds were screened at 1 μM or lower, using 1% DMSO as vehicle. Biochemical assay results are presented as the percent inhibition of specific binding in Table 2.

In the case of `O=C(Cn1c2c(c3cccnc31)CN1CCCC1C2)N1CCCCC1` (stereo not shown) [Compound 37, 1-(piperidin-1-yl)-2-(8,9,9a,10-tetrahydro-5H-pyrido[3′,2′:4,5]pyrrolo[3,2-f]indolizin-11(7H)-yl)ethanone], in assay [1] (0.1 μM ligand conc.), the “Percent Inhibition of ligand binding Adrenergic α2B” value was found to be 40%. In addition, the “Percent Inhibition of ligand binding Adrenergic α2A” value in assay [2] (0.1 μM ligand conc.) worked out at 12%.

With `O=C(Cn1c2c(c3cccnc31)C1CCCN1CC2)N1CCCCC1` (stereo not shown) [Compound 38, 1-(piperidin-1-yl)-2-(2,3,5,6-tetrahydro-1H-pyrido[3′,2′:4,5]pyrrolo[2,3-g]indolizin-7(11cH)-yl)ethanone], the “Percent Inhibition of ligand binding Adrenergic α2B” value in assay [1] (0.1 μM ligand conc.) amounted to 30%. The “Percent Inhibition of ligand binding Adrenergic α2A” value in assay [2] (0.1 μM ligand conc.) was found to be 4%.

For orientation: inhibition means how much of the control response was suppressed. For `Fc1ccc(CCn2c3c(c4cc(Cl)ccc42)C2CCCN2CC3)cc1` (stereo not shown) [Compound 1, 7-(4-fluorophenethyl)-10-chloro-2,3,5,6,7,11c-hexahydro-1H-indolizino[7,8-b]indole], the “Percent Inhibition of ligand binding Adrenergic α2B” value in assay [1] (1 μM ligand conc.) was 55%. For the same compound, in assay [2] (1 μM ligand conc.), the “Percent Inhibition of ligand binding Adrenergic α2A” value was 22%. Moreover, the inhibition at 1 µM in assay [3] came to 15%.

With `Fc1ccc(CCn2c3c(c4cc(Cl)ccc42)CN2CCCC2C3)cc1` (stereo not shown) [Compound 2, 10-(4-fluorophenethyl)-7-chloro-2,3,5,10,11,11a-hexahydro-1H-indolizino[7,6-b]indole], in assay [1] (1 μM ligand conc.), the “Percent Inhibition of ligand binding Adrenergic α2B” value stood at 51%. In assay [2] (1 μM ligand conc.), the “Percent Inhibition of ligand binding Adrenergic α2A” value is 20%. Also, the inhibition at 1 µM in assay [3] amounted to 17%.
